Earlier results on 5 molecules are cited in US20260014083A1, “Orally Administrable Pharmaceutical Dosage Form Comprising Lanthanum and Its Use in a Method Of Treatment of Hyperoxaluria” (AMGMT, priority 2022, published 2026).

Like-named read-outs stand apart in the source and are kept apart here.

One series relates to rat. Particulars: oxalate loading.
The conditions of series [1]: in vivo.
The test system of series [2] is patients with enteric hyperoxaluria.

For the molecule `O=C([O-])[O-].O=C([O-])[O-].O=C([O-])[O-].[La+3].[La+3]` [Lanthanum carbonate, lanthanum carbonate], in the series on rat, the CaOx crystalluria result was “decrease”, the calciuria entry is given as “minor increase”, the oxaluria result is given as “decrease” and the phosphaturia result is recorded as “striking increase”.
Consider `[Al]` [aluminum], for which, under “in vivo”, the calciuria entry was “increased calciuria”.
With `O=C([O-])[O-].[Ca+2]` [calcium carbonate], the calciuria result (current powerful phosphate binders) is listed as “increased calciuria”.
As for `[La]` [lanthanum], in series [1], the gastro-intestinal absorption is on record as 0.01%.

B1: reloxaliase: an oral enzyme therapeutic (Allena Pharmaceuticals) (protein, UniProt O34714 1-385, looked up)
Oxalate decarboxylase OxdC: MKKQNDIPQPIRGDKGATVKIPRNIERDRQNPDMLVPPETDHGTVSNMKFSFSDTHNRLEKGGYAREVTVRELPISENLASVNMRLKPGAIRELHWHKEAEWAYMIYGSARVTIVDEKGRSFIDDVGEGDLWYFPSGLPHSIQALEEGAEFLLVFDDGSFSENSTFQLTDWLAHTPKEVIAANFGVTKEEISNLPGKEKYIFENQLPGSLKDDIVEGPNGEVPYPFTYRLLEQEPIESEGGKVYIADSTNFKVSKTIASALVTVEPGAMRELHWHPNTHEWQYYISGKARMTVFASDGHARTFNYQAGDVGYVPFAMGHYVENIGDEPLVFLEIFKDDHYADVSLNQWLAMLPETFVQAHLDLGKDFTDVLSKEKHPVVKKKCSK
modifications: crosslinked enzyme crystals
For B1, the “least square mean treatment difference” value in series [2] (versus placebo, p=0.004) is given as −14.3%. The “mean reduction in average 24-hour urinary oxalate excretion” value in series [2] (weeks 1-4, placebo 9.7%) is recorded as 22.6%.
